The record followed here is the supplement of paper PMC4862054.

Settings in all cases: incubation time: 72 h
The test system of one assay is CAL-51. Kind of assay: normalised viability (% of control), CellTiter-Blue; higher = more viable cells (about 100 = DMSO control). As to the method: (§1)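 DSRT, CellTiter-Blue viability, 72 h incubation. Signal is normalised to DMSO and benzethonium chloride controls. Value is the normalised response at dose 3.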
(Alamar Blue is a resazurin reagent that responds to reducing activity.)

For assay [1], the system named is HDQ-P1. Described as above. As to the method: as §1
The subject of the next assay is BT-474. Put plainly: drug sensitivity score (DSS), CellTox Green (DSS (AUC-based score)); higher = stronger drug effect (viability inhibition or cytotoxicity); extreme values may be limits of the assay. The essentials:
(§2)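 Breast cancer cells were seeded into 384-well plates containing compound at 5 concentrations in 10-fold steps over a compound-specific 10,000-fold range and incubated 72 h. After CellTox Green and CellTiter-Glo readings, each plate was normalised to 0.1 % DMSO and a positive kill control. The drug sensitivity score rests on the area under the fitted dose-response curve.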

The test system of another assay is MDA-MB-436. Described as above. The essentials:
as §2

A further assay concerns MCF-10A. The assay is described as above. A digest of the protocol: as §2
The subject of assay [2] is HDQ-P1. Described as above. The essentials:
as §2

For another assay, the system named is CAL-148. Described as above. The essentials:
as §2

The test system of the next assay is CAL-85-1. Described as above. A digest of the protocol: as §2
In a further assay the test system is MFM-223. The description is as above. The essentials:
as §2

With `CN1CCC(COc2cnc(-c3cccc(Cn4nc(-c5cccc(C#N)c5)ccc4=O)c3)nc2)CC1`, the normalised viability in the assay with CAL-51 (10 nM) worked out at 92.9%; in the assay on HDQ-P1 [1] (10 nM), 86.3%. Further, the drug sensitivity score in the assay on BT-474 is 0; in the assay with MDA-MB-436 it was 0; in the assay with MCF-10A, 0; in the assay with HDQ-P1 [2] it was 0; with CAL-148, 0; in the assay with CAL-85-1, 0.655. Moreover, the drug sensitivity score with MFM-223 worked out at 0.
In the case of `CN(C)C/C=C/C(=O)Nc1cc2c(Nc3ccc(F)c(Cl)c3)ncnc2cc1O[C@H]1CCOC1` [Afatinib], the normalised viability worked out at 107% in the assay on CAL-51 (10 nM) and 94.3% in the assay on HDQ-P1 [1] (10 nM). Moreover, the drug sensitivity score in the assay with BT-474 was 3.66; in the assay with MDA-MB-436, 0; with MCF-10A, 0; with HDQ-P1 [2], 0; in the assay on CAL-148, 0; in the assay with CAL-85-1, 8. Also, the drug sensitivity score with MFM-223 was found to be 0.
With `CN1CC[C@H](c2c(O)cc(O)c3c(=O)cc(-c4ccccc4Cl)oc23)[C@H](O)C1` [Alvocidib], the results for the normalised viability in the assay on CAL-51 (10 nM) and in the assay with HDQ-P1 [1] (10 nM) were 103% and 106%, respectively. In addition, the drug sensitivity score came out at 0.211 in the assay on BT-474; 0 in the assay with MDA-MB-436; 16.1 in the assay on MCF-10A; 7.43 in the assay on HDQ-P1 [2]; 0 in the assay on CAL-148; 15.3 in the assay on CAL-85-1. The compound further registered a drug sensitivity score in the assay on MFM-223 of 7.92.
`Nc1nc(Cl)nc2c1ncn2[C@H]1C[C@H](O)[C@@H](CO)O1` [Cladribine]: the normalised viability in the assay on CAL-51 (1 nM) was determined as 114%; in the assay with HDQ-P1 [1] (1 nM) it was 120%. The drug sensitivity score in the assay on BT-474, in the assay on MDA-MB-436, with MCF-10A, with HDQ-P1 [2], in the assay on CAL-148 and in the assay on CAL-85-1 was 0 in each case. The same compound came in with a drug sensitivity score in the assay on MFM-223 of 3.32.
In the case of `Nc1ccn([C@@H]2O[C@H](CO)[C@@H](O)[C@@H]2O)c(=O)n1` [Cytarabine], the values for the normalised viability in the assay with CAL-51 (10 nM) and with HDQ-P1 [1] (10 nM) were 94.4% and 94.6%, respectively. The drug sensitivity score in the assay on BT-474 was 0; in the assay on MDA-MB-436, 0; in the assay with MCF-10A it was 0.944; with HDQ-P1 [2], 0; in the assay on CAL-148, 7.92; in the assay with CAL-85-1, 0. In addition, the drug sensitivity score with MFM-223 came out at 0.
For the compound `Cc1c2oc3c(C)ccc(C(=O)N[C@@H]4C(=O)N[C@H](C(C)C)C(=O)N5CCC[C@H]5C(=O)N(C)CC(=O)N(C)[C@@H](C(C)C)C(=O)O[C@@H]4C)c3nc-2c(C(=O)N[C@@H]2C(=O)N[C@H](C(C)C)C(=O)N3CCC[C@H]3C(=O)N(C)CC(=O)N(C)[C@@H](C(C)C)C(=O)O[C@@H]2C)c(N)c1=O` [Dactinomycin], the normalised viability in the assay on CAL-51 (1 nM) was 77%; with HDQ-P1 [1] (1 nM) it was 59.2%. Also, the drug sensitivity score in the assay with BT-474 came out at 2.02; with MDA-MB-436 it was 0; in the assay on MCF-10A, 15.4; in the assay on HDQ-P1 [2], 0; in the assay on CAL-148, 21.3; with CAL-85-1, 16.4. Also, the drug sensitivity score in the assay with MFM-223 came out at 4.62.
Turning to `COc1cccc2c1C(=O)c1c(O)c3c(c(O)c1C2=O)C[C@@](O)(C(=O)CO)C[C@@H]3O[C@H]1C[C@H](N)[C@H](O)[C@H](C)O1` [Doxorubicin], the normalised viability worked out at 105% in the assay on CAL-51 (1 nM) and 108% in the assay on HDQ-P1 [1] (1 nM). In addition, the drug sensitivity score is 0 in the assay with BT-474; 0 with MDA-MB-436; 0 in the assay with MCF-10A; 0 with HDQ-P1 [2]; 1.99 in the assay on CAL-148; 1.33 in the assay on CAL-85-1. The compound further displayed a drug sensitivity score with MFM-223 of 1.83.
On to `Cc1ccc(F)c(NC(=O)Nc2ccc(-c3cccc4[nH]nc(N)c34)cc2)c1` [Linifanib], for which the normalised viability was 102% in the assay on CAL-51 (1 nM) and 108% with HDQ-P1 [1] (1 nM). For the same compound, the drug sensitivity score in the assay on BT-474, in the assay with MDA-MB-436, in the assay on MCF-10A, in the assay with HDQ-P1 [2], in the assay on CAL-148 and with CAL-85-1 was 0 each time. This compound registered a drug sensitivity score in the assay on MFM-223 of 0.
With `COc1cc(Nc2ncc3c(n2)-c2ccc(Cl)cc2C(c2c(F)cccc2OC)=NC3)ccc1C(=O)O` [MLN8237], the figures for the normalised viability in the assay with CAL-51 (10 nM) and in the assay with HDQ-P1 [1] (10 nM) were 98.2% and 111%, respectively.
Consider `S=c1[nH]cnc2nc[nH]c12` [Mercaptopurine], for which the normalised viability in the assay on CAL-51 (10 nM) amounted to 108%; with HDQ-P1 [1] (10 nM) it was 106%. The drug sensitivity score in the assay on BT-474, with MDA-MB-436, with MCF-10A, in the assay with HDQ-P1 [2], with CAL-148 and in the assay on CAL-85-1 was 0 each time. Also, the drug sensitivity score in the assay on MFM-223 was 0.
